The values that follow come from paper PMC10764907, “Aryl-quinoline-4-carbonyl hydrazone bearing different 2-methoxyphenoxyacetamides as potent α-glucosidase inhibitors; molecular dynamics, kinetic and structure–activity relationship studies” (Scientific Reports, 2024).

Like-named read-outs stand apart in the source and are kept apart here.

Series [1] has as its target T1, α-glucosidase (Saccharomyces cerevisiae, UniProt P53341). Put plainly: biochemical. As to conditions: for IC50: α-glucosidase inhibition, mean ± SD. Type of series: biochemical.
The target of series [2] is T1, α-glucosidase. The series can be described thus: Enzyme kinetic studies (Lineweaver–Burk plot, secondary plot). Type of series: biochemical. From the text: This pattern indicates a competitive inhibition mechanism. […] Additionally, by plotting the Km values against different inhibitor concentrations, an estimation of the inhibition constant (Ki) was obtained.
Series [3] can be described thus: Concentrations of precipitation in the α-glucosidase inhibition assay. Type of series: physicochemical. From the text: Table 1 The α-glucosidase inhibition assay of 11a–o. | column: Concentrations of precipitation (µM)
For series [4], the target named is T1, α-glucosidase. The conditions noted are these: cited from earlier work; for IC50: Fig. 1.
Series [5] concerns α-amylase. The arrangement: method as in doi:10.1016/j.molstruc.2022.133650. The conditions noted are these: at 108 μM; cited from earlier work.
Setting [6] is: previously reported quinoline inhibitors.

T1 sequence (P53341 whole entry): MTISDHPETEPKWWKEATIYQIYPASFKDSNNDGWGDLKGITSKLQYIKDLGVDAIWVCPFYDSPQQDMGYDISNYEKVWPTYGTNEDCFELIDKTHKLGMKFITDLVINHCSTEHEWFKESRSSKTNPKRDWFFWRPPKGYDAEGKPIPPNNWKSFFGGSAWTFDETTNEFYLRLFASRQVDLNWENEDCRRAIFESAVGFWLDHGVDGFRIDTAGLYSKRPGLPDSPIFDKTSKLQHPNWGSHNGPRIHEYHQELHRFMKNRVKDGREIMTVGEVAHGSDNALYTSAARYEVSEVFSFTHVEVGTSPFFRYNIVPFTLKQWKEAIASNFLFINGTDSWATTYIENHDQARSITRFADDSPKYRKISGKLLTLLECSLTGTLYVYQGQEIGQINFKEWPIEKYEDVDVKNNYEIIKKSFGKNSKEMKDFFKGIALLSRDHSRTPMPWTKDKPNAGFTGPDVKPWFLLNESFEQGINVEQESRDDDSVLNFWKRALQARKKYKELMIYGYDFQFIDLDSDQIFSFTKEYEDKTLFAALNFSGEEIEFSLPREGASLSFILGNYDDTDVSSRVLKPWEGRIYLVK

`CCc1ccc(NC(=O)COc2ccc(C=NNC(=O)c3cc(-c4ccc(OC)cc4)nc4ccccc34)cc2OC)cc1` [11k, N-(4-ethylphenyl)-2-(2-methoxy-4-((2-(2-(4-methoxyphenyl)quinoline-4-carbonyl)hydrazono)methyl)phenoxy)acetamide] yielded a melting point greater than 250 °C. The molecule also came in with a concentration for half-maximal inhibition (IC50) in series [1] of 26 ± 0.8 µM. In addition, the inhibition constant Ki in series [2] is 25.6 µM. Moreover, the mode of inhibition entry in series [2] (Lineweaver–Burk plot) is listed as “competitive”.
In turn, `CCc1ccc(NC(=O)COc2ccc(C=NNC(=O)c3cc(-c4ccccc4)nc4ccccc34)cc2OC)cc1` [11d, N-(4-ethylphenyl)-2-(2-methoxy-4-((2-(2-phenylquinoline-4-carbonyl)hydrazono)methyl)phenoxy)acetamide] gave a melting point greater than 250 °C. Moreover, the IC50 in series [1] stood at 156.8 ± 1.5 µM. Further, the “Concentrations of precipitation” value in series [3] was no less than 375 µM.
Take `COc1ccc(-c2cc(C(=O)NN=Cc3ccc(OCC(=O)Nc4ccccc4)c(OC)c3)c3ccccc3n2)cc1` [11h, 2-(2-methoxy-4-((2-(2-(4-methoxyphenyl)quinoline-4-carbonyl)hydrazono)methyl)phenoxy)-N-phenylacetamide]: the melting point is greater than 250 °C. The “fold more potent vs positive control” value in series [1] (vs acarbose) was “more than 11 fold”. Inhibition in series [1] was half-maximal at 62.4 ± 0.9 µM (IC50). For the same molecule, the “Concentrations of precipitation” value in series [3] is no less than 375 µM.
`COc1ccc(-c2cc(C(=O)NN=Cc3ccc(OCC(=O)Nc4ccc(Cl)cc4)c(OC)c3)c3ccccc3n2)cc1` [11n, N-(4-chlorophenyl)-2-(2-methoxy-4-((2-(2-(4-methoxyphenyl)quinoline-4-carbonyl)hydrazono)methyl)phenoxy)acetamide] yielded a melting point greater than 250 °C. Besides, half-maximal inhibition in series [1] (IC50) required 48.7 ± 0.9 µM. For the same molecule, the “Concentrations of precipitation” value in series [3] is listed as no less than 190 µM.
As to `COc1ccc(-c2cc(C(=O)NN=Cc3ccc(OCC(=O)Nc4ccccc4C)c(OC)c3)c3ccccc3n2)cc1` [11i, 2-(2-methoxy-4-((2-(2-(4-methoxyphenyl)quinoline-4-carbonyl)hydrazono)methyl)phenoxy)-N-(o-tolyl)acetamide], the melting point is greater than 250 °C. The IC50 in series [1] stood at 71.2 ± 0.6 µM.
Regarding `O=C(O)c1ccc2ccccc2n1` [A], in series [4] (setting [6]), the IC50 is 9.1 µM.
In the case of `CCc1ccc(NC(=O)Cn2cc(COc3ccc(-c4nc5ccccc5[nH]4)cc3)nn2)cc1` [H], in series [4], the inhibition constant (Ki) was 23 µM and the mode of inhibition entry was “competitive”.
`COc1cc(C=NNC(=O)c2cc(-c3ccccc3)nc3ccccc23)ccc1OCC(=O)Nc1ccc(F)cc1` [11e, N-(4-fluorophenyl)-2-(2-methoxy-4-((2-(2-phenylquinoline-4-carbonyl)hydrazono)methyl)phenoxy)acetamide] yielded a melting point greater than 250 °C. In series [1], the IC50 is 52.6 ± 0.6 µM.
In turn, `COc1ccc(-c2cc(C(=O)NN=Cc3ccc(OCC(=O)Nc4ccc(F)cc4)c(OC)c3)c3ccccc3n2)cc1` [11l, N-(4-fluorophenyl)-2-(2-methoxy-4-((2-(2-(4-methoxyphenyl)quinoline-4-carbonyl)hydrazono)methyl)phenoxy)acetamide] gave a melting point greater than 250 °C. This molecule showed an IC50 in series [1] greater than 750 µM. Also, the “Concentrations of precipitation” value in series [3] is reported as no less than 190 µM.
For `COc1ccc(NC(=O)COc2ccc(C=NNC(=O)c3cc(-c4ccccc4)nc4ccccc34)cc2OC)cc1` [11c, 2-(2-methoxy-4-((2-(2-phenylquinoline-4-carbonyl)hydrazineylidene)methyl)phenoxy)-N-(4-methoxyphenyl)acetamide], the melting point is greater than 250 °C. In series [1], this molecule displayed a 50% inhibitory concentration (IC50) of 43.7 ± 1 µM.
As to `COc1cc(-c2nc3ccccc3c(=O)[nH]2)ccc1OCC(=O)Nc1ccccc1F` [J], in series [4], the IC50 was 14.4 µM.
With `O=C(CSc1nc2ccccc2cc1-c1nc2ccccc2[nH]1)Nc1ccc2ccccc2c1` [C], in series [4], the IC50 is 3.2 µM.
In the case of `COc1cc(-c2nc3ccccc3[nH]2)ccc1OCC(=O)Nc1ccc(F)cc1` [I], in series [4], the IC50 is 99.6 µM, the inhibitory constant (Ki) was 67 µM and the mode of inhibition result was “competitive”. Moreover, in series [5], the α-amylase inhibition is given as 45.0 ± 0.8%.
Regarding `COc1ccc(-c2nc3cc(C(=O)N/N=C/c4ccc(O)c(OC)c4)ccc3[nH]2)cc1` [F], the half-maximal inhibitory concentration (IC50) in series [4] is 60.1 µM.
Turning to `COc1cc(C=NNC(=O)c2cc(-c3ccccc3)nc3ccccc23)ccc1OCC(=O)Nc1ccc(Br)cc1` [11g, N-(4-bromophenyl)-2-(2-methoxy-4-((2-(2-phenylquinoline-4-carbonyl)hydrazineylidene)methyl)phenoxy)acetamide], the melting point was greater than 250 °C. The molecule further gave an IC50 in series [1] of 180.9 ± 1.7 µM. Moreover, in series [3], the “Concentrations of precipitation” value is recorded as no less than 375 µM.
As for `COc1cc(C=NNC(=O)c2cc(-c3ccccc3)nc3ccccc23)ccc1OCC(=O)Nc1ccc(Cl)cc1` [11f, N-(4-chlorophenyl)-2-(2-methoxy-4-((2-(2-phenylquinoline-4-carbonyl)hydrazono)methyl)phenoxy)acetamide], the melting point was greater than 250 °C. In series [1], this molecule gave a concentration for half-maximal inhibition (IC50) greater than 750 µM. Further, in series [3], the “Concentrations of precipitation” value is recorded as no less than 375 µM.
As for `O=C(N/N=C/c1cccc(F)c1)c1ccc2nc(-c3ccccc3)c(-c3ccccc3)nc2c1` [E], in series [4], the half-inhibitory concentration (IC50) is 111 µM.
Take `COc1ccc(NC(=O)COc2ccc(C=NNC(=O)c3cc(-c4ccc(OC)cc4)nc4ccccc34)cc2OC)cc1` [11j, 2-(2-methoxy-4-((2-(2-(4-methoxyphenyl)quinoline-4-carbonyl)hydrazono)methyl)phenoxy)-N-(4-methoxyphenyl)acetamide]: the melting point is greater than 250 °C. The same molecule yielded a half-inhibitory concentration (IC50) in series [1] of 61.8 ± 0.5 µM. The “Concentrations of precipitation” value in series [3] is recorded as no less than 190 µM.
In the case of `COc1cc(/C=N/NC(=O)CC#N)ccc1OCc1cn(Cc2ccc(Cl)cc2)nn1` [G], the 50% inhibitory concentration (IC50) in series [4] was 1 µM.
`COc1ccc(-c2cc(C(=O)NN=Cc3ccc(OCC(=O)Nc4ccc(Br)cc4)c(OC)c3)c3ccccc3n2)cc1` [11m, N-(4-bromophenyl)-2-(2-methoxy-4-((2-(2-(4-methoxyphenyl)quinoline-4-carbonyl)hydrazono)methyl)phenoxy)acetamide] returned a melting point greater than 250 °C. In series [1], this molecule yielded an IC50 of 152 ± 1.7 µM. Besides, the “Concentrations of precipitation” value in series [3] was no less than 190 µM.
On to `O=C(NCCCC1OC(CO)C(O)C(O)C1O)c1cc(-c2ccccc2)nc2ccccc12` (centres unmarked) [D], for which, in series [4], the IC50 was 7.98 µM.
Turning to `COc1ccc(-c2cc(C(=O)NN=Cc3ccc(OCC(=O)Nc4ccc([N+](=O)[O-])cc4)c(OC)c3)c3ccccc3n2)cc1` [11o, 2-(2-methoxy-4-((2-(2-(4-methoxyphenyl)quinoline-4-carbonyl)hydrazono)methyl)phenoxy)-N-(4-nitrophenyl)acetamide], the melting point is greater than 250 °C. The molecule also returned an IC50 in series [1] of 459.8 ± 1.5 µM.
The molecule `COc1cc(C=NNC(=O)c2cc(-c3ccccc3)nc3ccccc23)ccc1OCC(=O)Nc1ccc(C)cc1` [11b, 2-(2-methoxy-4-((2-(2-phenylquinoline-4-carbonyl)hydrazono)methyl)phenoxy)-N-(p-tolyl)acetamide] yielded a melting point greater than 250 °C. Further, the IC50 in series [1] worked out at 95.2 ± 1.2 µM. In addition, the “Concentrations of precipitation” value in series [3] is recorded as no less than 375 µM.
Molecule `COc1cc(C=NNC(=O)c2cc(-c3ccccc3)nc3ccccc23)ccc1OCC(=O)Nc1ccccc1C` [11a, 2-(2-methoxy-4-((2-(2-phenylquinoline-4-carbonyl)hydrazineylidene)methyl)phenoxy)-N-(o-tolyl)acetamide] gave a melting point greater than 250 °C. In series [1], this molecule had an IC50 of 34.8 ± 1.1 µM.
Consider `O=C(O)c1cnc2ccccc2c1` [B], for which the half-inhibitory concentration (IC50) in series [4] (setting [6]) is 10.6 µM.

By IC50 is commonly meant the point on the concentration scale where inhibition reaches its midpoint. The Ki is a dissociation constant, usually derived from enzyme kinetics or from competition with a known ligand. Broadly, the melting point is the temperature of the solid-liquid transition.
